Assay results published in ChEMBL document CHEMBL1201862, “PubChem BioAssay data set” (2004).
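Assay format: 96-well plates, 48-hour exposure. GI50 is the concentration that inhibits growth by half.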 Active and inactive are the calls of the source. Rule as the data show it: active = GI50 up to about 1.1 µM and inactive = higher.

Columns and labels:
Assay in all cases: NCI tumour cell line growth inhibition, 48 h
786-0 = test system: 786-0
A498 = test system: A498
BT-549 = test system: BT-549
DU-145 = test system: DU-145
HCT-116 = test system: HCT-116
HL-60 = test system: HL-60
HOP-62 = test system: HOP-62
HOP-92 = test system: HOP-92
Hs-578T = test system: Hs-578T
MCF7 = test system: MCF7
MDA-MB-231 = test system: MDA-MB-231
MDA-MB-435 = test system: MDA-MB-435
Malme-3M = test system: Malme-3M
NCI-H460 = test system: NCI-H460
NCI/ADR-RES = test system: NCI/ADR-RES
OVCAR-3 = test system: OVCAR-3
RXF 393 = test system: RXF 393
SNB-19 = test system: SNB-19
SR = test system: SR
CCRF-CEM = test system: CCRF-CEM

Compound	GI50 (786-0)	GI50 (A498)	GI50 (BT-549)	GI50 (DU-145)	GI50 (HCT-116)	GI50 (HL-60)	GI50 (HOP-62)	GI50 (HOP-92)	GI50 (Hs-578T)	GI50 (MCF7)	GI50 (MDA-MB-231)	GI50 (MDA-MB-435)	GI50 (Malme-3M)	GI50 (NCI-H460)	GI50 (NCI/ADR-RES)	GI50 (OVCAR-3)	GI50 (RXF 393)	GI50 (SNB-19)	GI50 (SR)	GI50 (CCRF-CEM)
Cc1cc(S(=O)(=O)Nc2n[nH]c(-c3ccc(Cl)cn3)n2)c(S)cc1Cl	47.6 µM (inactive)	87.3 µM (inactive)	32.2 µM (inactive)	> 100 µM (inactive)	38.6 µM (inactive)	42 µM (inactive)	76.6 µM (inactive)	9.04 µM (inactive)	27.9 µM (inactive)	74.1 µM (inactive)	> 100 µM (inactive)	43.1 µM (inactive)	> 100 µM (inactive)	36.9 µM (inactive)	85.5 µM (inactive)	45.6 µM (inactive)	27.1 µM (inactive)	30.1 µM (inactive)	47.8 µM (inactive)	–
CC1(C)CCCCC1/C=C/C(CC(O)(C(F)(F)F)C(F)(F)F)=N\Nc1ccc([N+](=O)[O-])cc1[N+](=O)[O-] (stereo not given)	1.92 µM (inactive)	1.25 µM (inactive)	0.376 µM (active)	2.52 µM (inactive)	0.587 µM (active)	1.38 µM (inactive)	0.578 µM (active)	–	0.575 µM (active)	0.573 µM (active)	2.03 µM (inactive)	0.49 µM (active)	4.51 µM (inactive)	0.604 µM (active)	4.32 µM (inactive)	0.409 µM (active)	0.406 µM (active)	4.5 µM (inactive)	0.518 µM (active)	0.662 µM (active)
CCOC(=O)c1cc(-c2ccn(C(C)=O)c2)c(-c2cc(C)co2)[nH]1	> 100 µM (inactive)	> 100 µM (inactive)	> 100 µM (inactive)	> 100 µM (inactive)	> 100 µM (inactive)	> 100 µM (inactive)	> 100 µM (inactive)	–	> 100 µM (inactive)	> 100 µM (inactive)	> 100 µM (inactive)	> 100 µM (inactive)	> 100 µM (inactive)	> 100 µM (inactive)	> 100 µM (inactive)	> 100 µM (inactive)	> 100 µM (inactive)	> 100 µM (inactive)	> 100 µM (inactive)	> 100 µM (inactive)
O=C(COc1ccc(Cl)c(Cl)c1)Nc1ccc[n+](Cc2ccc(S(=O)(=O)F)c(Cl)c2)c1	> 100 µM (inactive)	> 100 µM (inactive)	> 100 µM (inactive)	> 100 µM (inactive)	> 100 µM (inactive)	> 100 µM (inactive)	> 100 µM (inactive)	> 100 µM (inactive)	> 100 µM (inactive)	> 100 µM (inactive)	36.6 µM (inactive)	> 100 µM (inactive)	51.2 µM (inactive)	> 100 µM (inactive)	> 100 µM (inactive)	> 100 µM (inactive)	> 100 µM (inactive)	> 100 µM (inactive)	40.6 µM (inactive)	–
c1cc(-c2cscc2-c2ccsc2)cs1	72.1 µM (inactive)	> 100 µM (inactive)	37.8 µM (inactive)	> 100 µM (inactive)	40.5 µM (inactive)	30.4 µM (inactive)	26.5 µM (inactive)	> 100 µM (inactive)	17.4 µM (inactive)	30.5 µM (inactive)	> 100 µM (inactive)	36.4 µM (inactive)	–	43.9 µM (inactive)	37.7 µM (inactive)	14.4 µM (inactive)	28.4 µM (inactive)	–	27.5 µM (inactive)	52.6 µM (inactive)
Cc1c(CN2CCN(C)CC2)c(CN2CCN(C)CC2)c(C)n1-c1ccc(Cl)cc1	16.9 µM (inactive)	13.6 µM (inactive)	45 µM (inactive)	> 100 µM (inactive)	27.7 µM (inactive)	–	35.4 µM (inactive)	–	24 µM (inactive)	39.5 µM (inactive)	68.5 µM (inactive)	25.1 µM (inactive)	20.9 µM (inactive)	50.7 µM (inactive)	> 100 µM (inactive)	94.8 µM (inactive)	17.1 µM (inactive)	> 100 µM (inactive)	17.4 µM (inactive)	19.3 µM (inactive)
O=C1OC(c2ccccc2)N/C1=C\c1ccc2c(c1)OCO2 (stereo not given)	> 100 µM (inactive)	–	> 100 µM (inactive)	> 100 µM (inactive)	> 100 µM (inactive)	0.219 µM (active)	> 56.8 µM (inactive)	> 100 µM (inactive)	72.9 µM (inactive)	> 100 µM (inactive)	> 100 µM (inactive)	> 100 µM (inactive)	–	> 100 µM (inactive)	> 52.2 µM (inactive)	79.3 µM (inactive)	> 100 µM (inactive)	> 100 µM (inactive)	28.1 µM (inactive)	33.6 µM (inactive)
